These molecules were tested against T1, B2 bradykinin receptor (Rattus norvegicus, UniProt P25023) (assay: Inhibition of binding of [3H]BK to rat bradykinin B2 receptor expressed in NG108-15 neuroblastoma-glioma hybrid cell membranes).
T1 sequence (P25023 whole entry): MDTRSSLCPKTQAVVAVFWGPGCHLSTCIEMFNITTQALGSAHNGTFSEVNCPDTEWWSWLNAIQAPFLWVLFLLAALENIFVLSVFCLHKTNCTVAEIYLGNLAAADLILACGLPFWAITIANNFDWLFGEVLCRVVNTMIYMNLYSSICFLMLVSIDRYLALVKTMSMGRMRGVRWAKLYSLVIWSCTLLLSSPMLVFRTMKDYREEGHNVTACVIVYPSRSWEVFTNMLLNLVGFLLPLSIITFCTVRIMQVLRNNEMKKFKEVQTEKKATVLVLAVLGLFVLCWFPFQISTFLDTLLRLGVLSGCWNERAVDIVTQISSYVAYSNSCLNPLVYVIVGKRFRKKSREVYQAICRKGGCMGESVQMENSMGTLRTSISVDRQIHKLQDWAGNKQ
Parameters: species or system Membrane

| Structure (SMILES) | Ki |
| --- | --- |
| O=[N+]([O-])c1ccccc1N/N=C(/S)NCc1ccccc1 | 1600 nM |
| O=[N+]([O-])c1ccccc1N/N=C(/S)NC(c1ccccc1)c1ccccc1 | 38 nM |
| CN(C)CCCN(CCCN(C)C)S(=O)(=O)c1ccc(NNC(=S)NC(c2ccccc2)c2ccccc2)c([N+](=O)[O-])c1 | 148 nM |
| O=[N+]([O-])c1cccc(N/N=C(\S)NCc2ccccc2)c1 | > 100000 nM |
| S=C(NCc1ccccc1)NNc1ccccc1 | 100000 nM |
| CN(C)CCN(C)CCNC(=O)[C@@H]1CCCN1S(=O)(=O)c1ccc(NNC(=S)NC(c2ccccc2)c2ccccc2)c([N+](=O)[O-])c1 | 0.5 nM |
| NC(=O)c1ccc(N/N=C(/S)NC(c2ccccc2)c2ccccc2)c([N+](=O)[O-])c1 | 1.8 nM |
| O=[N+]([O-])c1cc(S(=O)(=O)NCc2ccco2)ccc1NNC(=S)NCc1ccco1 | 540 nM |

Continued, values first:

| Ki | Structure (SMILES) |
| --- | --- |
| > 100000 nM | O=C(O)c1ccccc1NNC(=S)NCc1ccccc1 |
| > 100000 nM | O=[N+]([O-])c1cc(S(=O)(=O)NCc2ccccc2)ccc1N/N=C(\S)CCc1ccccc1 |
| 310 nM | O=[N+]([O-])c1cc(S(=O)(=O)NCc2ccccc2)ccc1NNC(=S)NCc1ccccc1 |
| > 100000 nM | O=C(NCc1ccccc1)NCc1ccccc1[N+](=O)[O-] |
| 7100 nM | O=[N+]([O-])c1ccccc1CNC(=S)NCc1ccccc1 |
| 4 nM | NS(=O)(=O)c1ccc(N/N=C(/S)NC(c2ccccc2)c2ccccc2)c([N+](=O)[O-])c1 |
| 0.6 nM | CN(C)CCN(C)CCNC(=O)[C@H]1CCCN1S(=O)(=O)c1ccc(NNC(=S)NC(c2ccccc2)c2ccccc2)c([N+](=O)[O-])c1 |
| > 100000 nM | O=[N+]([O-])c1cc(S(=O)(=O)NCc2ccccc2)ccc1NC/C(S)=N\Cc1ccccc1 |
